Columns and labels:
[1] = system: C. albicans (SLU-1 strain); test: Survival of mice systemically infected with Candida albicans; assay type: in vivo, mouse
Protocol: Groups of 15 male DBA/2J mice at age 6-8 weeks (Jackson Laboratory, Bar Harbor, Me.) were inoculated with 1.24×10^5 C. albicans (SLU-1 strain as described in Example 2) by intravenous injection into the tail vein. Cells were prepared for animal injection as follows. A single colony was selected and used to inoculate a 5 mL tube of Sabouraud dextrose broth. Incubation was at 30° C. with shaking to allow aeration for a period of 15-18 hours. Four mL of the overnight culture were added to 100 mL of fresh Sabouraud dextrose broth (1:25 dilution) and incubated for 4 hours. The 100 mL culture was pelleted at 1,500×g for 5 minutes. Cells were washed twice by adding 20 mL D-PBS, vortexing and re-centrifuging. Cells were collected in one tube and a sample is diluted 1:10 to be measured by OD570 (1 OD unit=3×10^7 CFU/mL). The cells were diluted to the desired dose in D-PBS and kept at 4° C. until used. Doses were confirmed by performing serial ten-fold dilutions and plating 50 μl per dilution on Sabouraud dextrose agar. Colonies were counted the following day after overnight incubation at 37° C. A […] culture yielded approximately 1×10^9 CFU/mL.
Immediately after fungal challenge, the mice were intravenously injected via the tail vein with a 0.1 mL volume of 10 mg/kg XMP.36, 5 mg/kg XMP.97, 10 mg/kg XMP.102, 1 mg/kg amphotericin B (Sigma, St. Louis, Mo.), or phosphate buffered saline (PBS) as a control. Treatment with the same amounts of peptides, amphotericin B or PBS was repeated at Day 2 and Day 4 (except that the second dose of XMP.36 was given at a dose of 5 mg/kg). Mice were monitored twice daily for mortality until termination of the study at Day 28. […] In FIG. 4, the symbol “X” represents survival after treatment with amphotericin B; open squares, treatment with XMP.97; open circles, treatment with XMP.36; open diamonds, treatment with XMP.102; and open triangles, treatment with buffer. Statistical significance was evaluated using the Lifetest Survival Curve analysis. [Lawless, Statistical Models and Methods for Lifetime Data, John Wiley & Sons, New York (1982).] The duration and almost linear decline in survival is analogous to human opportunistic candidiasis.
In additional 3-dose studies, groups of 15 mice were injected with a fungal challenge of 0.5×10^5 Candida cells, prepared for injection as described above, followed by treatment at Day 0, Day 2 and Day 5 with a 0.1 mL volume of 10 mg/kg XMP.127, 5 mg/kg XMP.13, 5 mg/kg XMP.37, 1 mg/kg amphotericin B, or PBS as a control. […] In FIG. 5, the symbol “X” represents survival after treatment with amphotericin B; open circles, treatment with XMP.127; filled triangles, treatment with buffer; open squares, treatment with XMP.37; open triangles, treatment with XMP.13.
Further studies to determine the effectiveness of anti-fungal peptides were performed at an increased dosing regimen (6 doses rather than 3 doses as described above). Groups of 9 week-old male DBA/2J mice were inoculated with concentrations of 2.7×10^5 Candida cells (prepared as described above) by intravenous injection in the tail vein. Immediately after fungal challenge, the mice were treated with a 0.1 mL volume of 10 mg/kg XMP.284, 1 mg/kg amphotericin B or PBS as a control at Day 0, Day 2, Day 4, Day 7, Day 9 and Day 11. All amphotericin B-treated animals were protected.
Additional 6-dose experiments were conducted as described above, using inocula of 0.5-3.0×10^5 Candida cells and using 0.01, 0.05, 0.1, 0.5, 1.0 or 5.0 mg/kg doses of peptide.

[2] = system: C. albicans (CA-1, Strain SLU-1); test: Radial diffusion assay; assay type: cell-based, Candida albicans; conditions: pmoles of peptide added to well to achieve a 30 mm^2 zone, PROBIT analysis, crude or purified (P′) peptide
Method in brief: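 Yeast at 1×10^6 CFU/mL in agarose underlayer (3% Sabouraud, 10 mM sodium phosphate pH 7.4); 2-fold peptide dilutions in D-PBS from ~1 mg/mL loaded into wells, 3 h at 37° C, then nutrient overlayer overnight. Value: pmol/well giving 30 mm^2 net clear zone, by PROBIT regression.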

[3] = 0.5×10^5 Candida cells, doses Day 0, 2, 5, 10 mg/kg XMP.127, 5 mg/kg XMP.13, 5 mg/kg XMP.37, 1 mg/kg amphotericin B, FIG. 5
[4] = 2.7×10^5 Candida cells, 10 mg/kg, 6 doses (Day 0, 2, 4, 7, 9, 11), FIG. 6

| Molecule | mice survived until Day 28 [1, 3] | C. albicans pmol/30 mm^2 zone [2] | C. albicans pmol/30 mm^2 zone ([2]; listed as XMP.13P′) | mice survived until Day 28 ([1]; 1.24×10^5 C. albicans i.v., 3 doses i.v. (Day 0, 2, 4), 10 mg/kg XMP.36, 5 mg/kg XMP.97, 10 mg/kg XMP.102, 1 mg/kg amphotericin B, FIG. 4) | protection of animals (6-dose study) ([1]; 2.7×10^5 Candida cells, 1 mg/kg, 6 doses) | survival at Day 6 [1, 4] | survival at Day 24 [1, 4] | C. albicans pmol/30 mm^2 zone ([2]; listed as XMP.284P′) |
| --- | --- | --- | --- | --- | --- | --- | --- | --- |
| H-KSKVGWLIQLFHKK-NH2 [XMP.13] | 20% | 541 pmol/30 mm^2 zone | 222 pmol/30 mm^2 zone |  |  |  |  |  |
| H-KSKVGWAIQLFHKK-NH2 [XMP.37] | 33% | 253 pmol/30 mm^2 zone |  |  |  |  |  |  |
| C[C@@H]1[C@H](O)[C@@H](C)/C=C/C=C/C=C/C=C/C=C/C=C/C=C/[C@H](O[C@@H]2O[C@H](C)[C@@H](O)[C@H](N)[C@@H]2O)C[C@@H]2O[C@](O)(C[C@@H](O)C[C@@H](O)[C@H](O)CC[C@@H](O)C[C@@H](O)CC(=O)O[C@H]1C)C[C@H](O)[C@H]2C(=O)O [Amphotericin B, amphotericin B, reference compound] | 100% |  |  | 100% | protected |  |  |  |
| H-SKVKWLIQLFHKK-NH2 [XMP.284] |  | 1,460 pmol/30 mm^2 zone |  |  |  | 87% | 33% | 373 pmol/30 mm^2 zone |
